Results as given in US20140296343A1, “NON-PEPTIDE BDNF NEUROTROPHIN MIMETICS” (PharmatrophiX, Inc., priority 2010, published 2014).

Legend:
[1] = system: E16-17 hippocampal neurons; assay: Aβ-induced neuronal degeneration (Alzheimer's disease model); format: cell-based; settings: for prevention of Aβ-induced degeneration: Aβ1-42 oligomer 10 μM
Procedure: The ability of the BDNF mimetics to prevent Aβ-induced neuronal degeneration can be tested as a model of the compounds' ability to treat Alzheimer's disease. E16-17 hippocampal neurons are matured for 6 days and then incubated for 3 days with the indicated combinations of Aβ oligomer preparations (Dahigren, K. N., et al. (2002) J Biol Chem 277, 32046-32053), neurotrophins and neurotrophin mimetics. Following the three day incubation, neuronal survival is assessed using standard morphological criteria (Massa, S. M., et al. (2006) J Neurosci 26, 5288-5300).
Addition of Aβ1-42 oligomer (10 μM) but not control AβScrambled oligomer (10 μM) results in an approximate 40% reduction in neuronal survival. […] The effectiveness of BDNF mimetics of the present invention can be compared to BDNF in blocking Aβ-induced degeneration.

TrkC = target: T1, TrkC (Homo sapiens, UniProt Q16288); assay: Trk activation by Western blot of phospho-Trk in NIH3T3 cells expressing TrkC; format: cell-based
T1 construct: expressed in transfected cells; host or cells: NIH3T3 (mouse fibroblasts, no native Trk receptors)
Procedure: (§1) To assess the interactions of the BDNF loop 2 mimetic compounds with TrkB receptors, the ability of the compounds of the invention to activate TrkA, TrkB, and TrkC is compared in a series of Western blotting experiments. […] Western blots were used to detect phospho-Trk which is a standard method for detecting Trk activation.
A measurement of NIH3T3 cells expressing TrkC can also be used to evaluate the compounds of the invention. Total amount of TrkC present is determined by probing with anti-TrkC antibodies.

[2] = system: mouse E16 striatal neurons; settings: cited from earlier work
TrkB = target: T2, TrkB (Homo sapiens, UniProt Q16620); assay: Trk activation by Western blot of phospho-Trk in NIH3T3 cells expressing TrkB; format: cell-based
T2 construct: expressed in transfected cells; host or cells: NIH3T3 (mouse fibroblasts, no native Trk receptors)
Text: as §1

TrkA = target: T3, TrkA (Homo sapiens, UniProt P04629); assay: Trk activation by Western blot of phospho-Trk in NIH3T3 cells expressing TrkA; format: cell-based
T3 construct: expressed in transfected cells; host or cells: NIH3T3 (mouse fibroblasts, no native Trk receptors)
Text: as §1

T1 sequence (Q16288 32-839): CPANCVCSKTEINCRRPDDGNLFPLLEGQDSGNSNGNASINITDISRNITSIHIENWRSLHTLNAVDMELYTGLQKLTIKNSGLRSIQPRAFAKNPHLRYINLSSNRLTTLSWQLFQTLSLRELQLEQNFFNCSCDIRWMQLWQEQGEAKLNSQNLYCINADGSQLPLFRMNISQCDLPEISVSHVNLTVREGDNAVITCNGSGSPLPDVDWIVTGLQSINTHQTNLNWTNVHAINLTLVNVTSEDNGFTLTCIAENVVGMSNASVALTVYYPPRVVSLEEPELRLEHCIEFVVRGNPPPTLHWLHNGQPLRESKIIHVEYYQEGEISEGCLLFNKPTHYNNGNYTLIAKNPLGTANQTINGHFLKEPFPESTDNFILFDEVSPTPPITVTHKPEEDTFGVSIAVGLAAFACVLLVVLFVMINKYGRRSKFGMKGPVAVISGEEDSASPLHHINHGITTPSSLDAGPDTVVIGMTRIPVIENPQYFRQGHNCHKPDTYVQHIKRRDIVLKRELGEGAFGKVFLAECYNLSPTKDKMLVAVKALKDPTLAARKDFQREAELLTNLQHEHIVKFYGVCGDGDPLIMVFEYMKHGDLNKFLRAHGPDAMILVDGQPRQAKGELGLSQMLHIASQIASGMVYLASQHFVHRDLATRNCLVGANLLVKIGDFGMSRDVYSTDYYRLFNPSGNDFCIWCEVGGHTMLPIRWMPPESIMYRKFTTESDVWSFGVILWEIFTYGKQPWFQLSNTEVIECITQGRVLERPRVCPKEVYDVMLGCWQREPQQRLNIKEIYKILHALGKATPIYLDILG
T2 sequence (Q16620 32-822): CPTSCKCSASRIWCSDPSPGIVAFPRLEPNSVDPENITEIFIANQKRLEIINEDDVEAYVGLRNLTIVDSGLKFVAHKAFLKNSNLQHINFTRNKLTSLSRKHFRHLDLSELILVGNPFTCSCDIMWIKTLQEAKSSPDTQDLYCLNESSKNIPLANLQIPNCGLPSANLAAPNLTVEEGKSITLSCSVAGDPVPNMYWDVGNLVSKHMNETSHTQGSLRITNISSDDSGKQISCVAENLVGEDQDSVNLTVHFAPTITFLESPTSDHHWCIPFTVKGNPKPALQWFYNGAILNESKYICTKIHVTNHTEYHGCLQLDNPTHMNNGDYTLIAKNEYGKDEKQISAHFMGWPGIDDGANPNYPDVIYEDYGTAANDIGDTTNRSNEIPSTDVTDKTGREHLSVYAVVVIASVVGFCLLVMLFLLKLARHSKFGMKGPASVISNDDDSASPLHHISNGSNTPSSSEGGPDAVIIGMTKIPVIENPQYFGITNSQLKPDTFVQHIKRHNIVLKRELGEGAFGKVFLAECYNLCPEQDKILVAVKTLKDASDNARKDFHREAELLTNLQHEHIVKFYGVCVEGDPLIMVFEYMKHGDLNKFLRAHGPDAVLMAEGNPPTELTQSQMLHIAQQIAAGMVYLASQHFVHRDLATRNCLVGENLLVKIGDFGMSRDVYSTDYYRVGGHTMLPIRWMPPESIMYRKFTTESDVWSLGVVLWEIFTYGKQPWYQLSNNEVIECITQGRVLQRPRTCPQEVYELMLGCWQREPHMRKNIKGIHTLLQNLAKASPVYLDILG
T3 sequence (P04629 33-796): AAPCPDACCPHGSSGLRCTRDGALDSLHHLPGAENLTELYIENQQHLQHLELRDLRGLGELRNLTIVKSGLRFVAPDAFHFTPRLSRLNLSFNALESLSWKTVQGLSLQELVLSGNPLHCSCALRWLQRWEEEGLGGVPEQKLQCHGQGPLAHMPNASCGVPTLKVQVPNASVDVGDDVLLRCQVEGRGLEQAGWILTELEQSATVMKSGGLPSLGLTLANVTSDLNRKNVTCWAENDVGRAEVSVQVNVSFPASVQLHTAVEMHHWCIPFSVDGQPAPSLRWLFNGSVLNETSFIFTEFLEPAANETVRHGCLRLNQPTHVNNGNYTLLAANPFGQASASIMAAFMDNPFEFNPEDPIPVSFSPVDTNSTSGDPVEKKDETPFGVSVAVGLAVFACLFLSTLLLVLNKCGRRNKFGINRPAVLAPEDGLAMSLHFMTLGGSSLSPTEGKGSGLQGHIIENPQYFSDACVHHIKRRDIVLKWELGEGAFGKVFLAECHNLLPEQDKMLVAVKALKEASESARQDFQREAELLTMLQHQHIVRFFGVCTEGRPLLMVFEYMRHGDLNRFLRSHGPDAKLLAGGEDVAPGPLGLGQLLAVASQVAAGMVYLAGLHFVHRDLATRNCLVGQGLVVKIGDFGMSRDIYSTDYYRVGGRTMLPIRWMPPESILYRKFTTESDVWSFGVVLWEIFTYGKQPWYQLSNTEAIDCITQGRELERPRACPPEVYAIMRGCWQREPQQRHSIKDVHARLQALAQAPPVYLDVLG

Molecule | prevention of Aβ-induced degeneration ([1]; 3 day incubation) | phosphorylation of Trk in TrkC-expressing cells (TrkC) | activation of TrkB (Trk phosphorylation, anti-TrkY490) (TrkB) | further results
CC[C@H](C)[C@H](N)C(=O)NCCN1CCOCC1 [LM11A-31, reference compound] | blocks Aβ-induced degeneration |  |  | 
NT-3: Neurotrophin-3; native ligand of TrkC |  | promotes the phosphorylation of Trk |  | 
COC(=O)[C@@]1(O)C[C@H]2O[C@]1(C)n1c3ccccc3c3c4c(c5c6ccccc6n2c5c31)C(=O)NC4 [Compound K252a] |  |  |  | effect on quinolinic acid-induced death ([2]; K252a alone): no effect; effect on the ability of BDNF to prevent quinolinic acid-induced death ([2]; K252a with BDNF): blocks the ability of BDNF to prevent death
Aβ1-42 oligomer: amyloid-β 1-42 oligomer preparation used to induce neuronal degeneration [reference compound] |  |  |  | reduction in neuronal survival ([1]; 10 μM, 3 day incubation): ~40%
NGF: Nerve Growth Factor, a neurotrophin; native ligand of TrkA | fails to prevent Aβ-induced degeneration |  | do not activate TrkB | effect on LM11A-31 blocking of Aβ-induced degeneration ([1]; NGF together with LM11A-31): blocked
BDNF: Brain Derived Neurotrophic Factor, a neurotrophin; native ligand of TrkB (protein, UniProt P23560 19-247, looked up) Neurotrophic factor BDNF …: APMKEANIRGQGGLAYPGVRTHGTLESVNGPKAGSRGLTSLADTFEHVIEELLDEDQKVRPNEENNKDADLYTSRVMLSSQVPLEPPLLFLLEEYKNYLDAANMSMRVRRHSDPARRGELSVCDSISEWVTAADKKTAVDMSGGTVTVLEKVPVSKGQLKQYFYETKCNPMGYTKEGCRGIDKRHWNSQCRTTQSYVRALTMDSKKRIGWRFIRIDTSCVCTLTIKRGR |  | do not | activate TrkB | activation of TrkA (Trk phosphorylation) (TrkA): does not; prevention of quinolinic acid-induced death ([2]; previous work): can prevent quinolinic acid-induced death
